Data as given in patent publication US20110306570A1, “Na/K-Atpase Expression as an Indicator for the Treatment of Cancer” (UNIVERSITY OF TOLEDO, priority 2008, published 2011).
“Also recorded” adds a separate entry of the source.

Experiments:
[1] = test system: LLC-PK1 cells; assay: MTT cell growth assay, LLC-PK1 cells; assay type: cell-based, pig
Method: (§1) FIG. 1A: LLC-PK1 cells, BT20 cells, and DU145 cells were subcultured in 96-well plates (10,000 cells/well) and serum starved. […] Cells were solublized by adding 100 μl/well detergent provided by ATCC after 90 min of incubation and OD570 was then measured.
Cell growth was then measured using MTT assay.
(§2) MTT assay for measuring cell proliferation: Cells were sub-cultured in 96 well plates at 10,000 cells/well in 100 μl culture medium. […] Ten μl MTT reagent (3-4,5-dimethylthiazol-2-yl)-2,5-diphenyltetrazolium bromide) was added to each well for 90 min. The formazan crystal was dissolved with detergent and the OD value was measured at 570 nm.

[2] = test system: BT20 cells; assay: MTT cell growth assay, BT20 cells; assay type: cell-based, human; settings: 24 h
Method: as §1, §2

[3] = test system: DU145 cells; assay: MTT cell growth assay, DU145 cells; assay type: cell-based, human; settings: 24 h
Method: as §1, §2

[4] = test system: P-11 cells (control vector-transfected LLC-PK1); assay: MTT cell growth assay, control P-11 cells; assay type: cell-based, pig; settings: ouabain 1 to 10 nM, 16 h
Method: as §2

[5] = test system: C2-9 cells; assay: MTT cell growth assay, caveolin-1 knock-down C2-9 cells; assay type: cell-based, pig; settings: C2-9 caveolin-1 knockdown cells
Method: as §2

[6] = test system: BT20 cells; assay: Cell growth curve (cell counting), BT20 cells; assay type: cell-based, human
Method: (§3) FIG. 1B: The above three cell lines were subcultured in 12-well plates (50,000 cells/well) and serum starved.
(§4) Cell growth curve and cell cycle measurement: Cells were sub-cultured in 12 well plates at 50,000/well in 1 ml culture medium for 24 h. […] At each indicated time point, three wells of control or treated cells were trypsinized and counted. For cell cycle measurement, cells were trypsinized and re-suspended in Citrate buffer (8.55% sucrose, 1.18% Na citrated, 5% DMSO, pH 7.6), and stained with propidium iodide (PI). The stained cells were then analyzed by Flow Cytometry.

[7] = test system: DU145 cells; assay: Cell growth curve (cell counting), DU145 cells; assay type: cell-based, human; settings: 10 nM ouabain
Method: as §3, §4

[8] = target: T1, Na/K-ATPase α1 (Sus scrofa, UniProt P05024); assay: Na/K-ATPase α1 expression, caveolin-1 knock-down C2-9 cells; assay type: cell-based, pig; settings: C2-9 caveolin-1 knockdown cells, 5 and 10 nM ouabain, 72 h
T1 construct: endogenous in cells; host or cells: LLC-PK1 (ATCC) and its caveolin-1 knock-down line C2-9

[9] = test system: Na/K-ATPase α1 mRNA; assay: Na/K-ATPase α1 mRNA by RT-PCR, LLC-PK1 cells; assay type: cell-based, pig; settings: 10 nM ouabain, 24 h
Method: (§5) Total RNA was extracted and applied for RT-PCR to probe Na/K-ATPase α1 as described in the Experimental Procedures section.
(§6) Quantitative RT-PCR: The cells were seeded in 6-cm dishes and serum-starved for 24 h after the confluence reached 90%. […] Total RNA was extracted using TRIzol and subjected to quantitative RT-PCR analysis. The assays were performed on the AB 7500 real time PCR system with the following protocol: 1 cycle (6 min at 95° C.), 40 cycles (30 s at 95° C., 30 s at 52° C., 30 s at 72° C., and 1 min at 85° C.), followed by a dissociation stage to ensure a single product. The reactions are in a total volume of 25 μl, including 1.25 µl of Sybr Green (Invitrogen), 0.125 µl of DNA polymerase (Denville), 2.5 µl of dNTP (Invitrogen), 10 ng of cDNA. Primer pairs were used at 5 μM concentration, and the sequences are:
(§7) The relative Na/K-ATPase al gene expression was calculated by comparative threshold (CT) method (ΔΔCT). To normalize the difference amounts of cDNA, GAPDH was used as an internal control.

[10] = test system: Na/K-ATPase α1 mRNA; assay: Na/K-ATPase α1 mRNA by RT-PCR, BT20 cells; assay type: cell-based, human; settings: 10 nM ouabain, 24 h
Method: as §5, §6, §7

[11] = test system: Na/K-ATPase α1 mRNA; assay: Na/K-ATPase α1 mRNA by RT-PCR, DU145 cells; assay type: cell-based, human; settings: 10 nM ouabain, 24 h
Method: as §5, §6, §7

[12] = test system: Akt; assay: Akt phosphorylation (pAkt) by Western blot, LLC-PK1 cells; assay type: cell-based, pig; settings: ouabain 15 min
[13] = test system: Akt; assay: Akt phosphorylation (pAkt) by Western blot, DU145 cells; assay type: cell-based, human; settings: ouabain 15 min
From the text: The pAkt was probed by Western blot.

[14] = test system: Akt; assay: Akt phosphorylation, PY-17 cells; assay type: cell-based, pig; settings: ouabain, data not shown
[15] = target: T2, Na/K-ATPase in the plasma membrane (Homo sapiens, UniProt P05023); assay: 3H-ouabain binding after ouabain pre-treatment, DU145 cells; assay type: cell-based; design: endogenous in cells; settings: ouabain 72 h
Method: (§8) The cells were washed and 3H-ouabain were performed as described herein. * p<0.05, ** p<0.01
(§9) To assess the functional consequence of these changes in α1 expression, the inventors measured the number of functional Na/K-ATPase in the plasma membrane.
(§10) Afterwards, cells were washed with serum-free medium and subjected to 3H-ouabain binding assay. Briefly, cells were incubated in K+-free Kreb's solution (NaCl 137 mM; KCl 0 mM; CaCl2 2.8 mM; NaH2PO4 0.6 mM; MgSO4 1.2 mM; dextrose; 10 mM; Tris 15 mM; pH7.4) for 15 min, and then exposed to 100 nM 3H-ouabain for 30 min at 37° C. At the end of incubation, the cells were washed 3 times with ice-cold K+-free Kreb's solution, solubilized in 0.1M NaOH-0.2% SDS, and counted in a scintillation counter for 3H-ouabain. […] Paralleled plates were used for counting cell numbers. 3H-ouabain binding data were calculated as binding sites per cell.

[16] = target: Na/K-ATPase α1 (Homo sapiens, UniProt P05023); assay: Na/K-ATPase α1 expression, MDA-MB-435s cells; assay type: cell-based; design: endogenous in cells; host or cells: MDA-MB-435s; settings: 5 nM ouabain, 24 h, N=3, P<0.05
From the text: A significant reduction in α1 expression was detected (82±2% of control, N=3, P<0.05). Thus, ouabain-induced changes in α1 expression are clearly correlated with its effects on cell growth.

[17] = target: T2, Na/K-ATPase in the plasma membrane; assay: 3H-ouabain binding after ouabain pre-treatment, BT20 cells; assay type: cell-based; design: endogenous in cells; host or cells: BT20 (intact cells); settings: ouabain 72 h
Method: as §8, §9, §10

[18] = different concentrations of ouabain

## C[C@@H]1O[C@@H](O[C@H]2C[C@@H](O)[C@]3(CO)[C@H]4[C@H](O)C[C@]5(C)[C@@H](C6=CC(=O)OC6)CC[C@]5(O)[C@@H]4CC[C@]3(O)C2)[C@H](O)[C@H](O)[C@H]1O [ouabain]
[1]; LLC-PK1 cells pre-treated with rapamycin, 10 nM ouabain
  cell growth with ouabain in rapamycin pre-treated cells (MTT): significant inhibition of cell growth; also recorded: significant inhibition of cell proliferation
[1]; LLC-PK1 cells, ouabain 1 to 50 nM, 24 h
  effect on cell growth (MTT): stimulated cell growth
[2]; 10-50 nM ouabain
  effect on cell growth (MTT): significant inhibition of cell growth
[2]; [18]
  stimulatory effect on cell growth (MTT): failed to detect any stimulatory effect
[3]; 10-50 nM ouabain
  effect on cell growth (MTT): significant inhibition of cell growth
[3]; [18]
  stimulatory effect on cell growth (MTT): failed to detect any stimulatory effect
[4]
  effect on cell growth (MTT): stimulated the cell growth
[5]
  ouabain-induced cell growth response (MTT): abolished ouabain-induced cell growth stimulation
[6]; 50 nM ouabain
  block of cell growth (cell counting): completely block the growth
[6]; 10 and 50 nM ouabain
  cell number as a function of time: significantly reduced the number of BT20 cells
[7]
  block of cell growth (cell counting): completely block the growth
[8]
  ouabain-induced increases in α1 expression: completely abolished ouabain-induced increases in α1 expression
[9]
  levels of α1 mRNA: no effect on levels of α1 mRNA
[10]
  levels of α1 mRNA: no effect on levels of α1 mRNA
[11]
  levels of α1 mRNA: no effect on levels of α1 mRNA
[12]
  Akt phosphorylation: stimulated Akt phosphorylation
[13]
  Akt phosphorylation: failed to do so
[14]
  Akt phosphorylation: no effect on Akt phosphorylation
[15]
  surface active Na/K-ATPase (3H-ouabain binding): significant decrease in surface active Na/K-ATPase
[16]
  Na/K-ATPase α1 expression: 82±2 % of control
[17]
  surface active Na/K-ATPase (3H-ouabain binding): significant decrease in surface active Na/K-ATPase
